Laboratory results reported in patent US20100261770A1, “PHARMACEUTICAL COMPOSITION FOR IMPROVING LOWER URINARY TRACT SYMPTOMS” (ASTELLAS PHARMA INC., priority 2007, published 2010).
Where a name gives a salt, the structure may show the parent alone.

System: rats with bladder outlet obstruction
Assay: Effect on premicturition contraction in rats with bladder outlet obstruction
Format: in vivo
Conditions: iv; for inhibition of the premicturition contraction frequency (single use, ground for dose setting): 0.3 mg(/mL)/kg for the acetanilide compound, 0.001 mg(/mL)/kg for the sulfonamide hydrochloride; for ratio of the premicturition contraction frequency relative to the pre-administration value: drug A 0.3 mg/mL/kg, drug B 0.001 mg/mL/kg, AB combination at both doses, first micturition reflex after administration, 5 animals per group; for significant inhibition of the premicturition contraction (frequency): single use at 0.3 mg/kg or 0.001 mg/kg, or both combined, combination compared to any other groups
Protocol: The rats were fixed to a dorsal position under pentobarbital anesthesia (50 mg/kg ip), and a catheter (PE-20) was inserted into the bladder from the external urethral orifice. A midline incision was made in the lower abdominal wall, and the proximal urethra, together with the catheter, was tied at two sites with a silk suture (5-0), then, the catheter was removed and the surgical wound was sutured, and then ampicillin (150 mg/kg sc) as an antibiotic was administered to the animals which were then housed in a breeding cage. On the 11th to 12th day after the surgery, a midline incision was made in the lower abdominal wall under pentobarbital anesthesia (50 mg/kg ip), and the silk sutures tying the urethra were removed. The bladder was exposed, followed by drainage of urine, and a catheter (PE-50) was inserted into the bladder from the apical part the bladder and fixed. The other end of this catheter was lead to the outside from the posterior cervical region and then the surgical wound was sutured. In addition, a catheter (PE-50) for the drug administration was inserted into the jugular vein, and then the other end thereof was lead to the outside from the posterior cervical region. Ampicillin (150 mg/kg sc) was administered to the animals which were then returned to a breeding cage. Two to three days later, the rats were retained in a Bollman cage. The catheter inserted into the bladder was connected to a three-way stopcock valve, and one end was connected to a syringe pump (STC-525) and micturition reflex was induced by continuous infusion of physiological saline [3.6 to 12 mL/h (adjusted to achieve a voiding interval of 20 to 40 minutes)]. In addition, the other end was connected to a pressure transducer (TP-400T), and intravesical pressure was measured with a pressure amplifier (AP-601G). The premicturition contraction frequency [evaluated for 10 minutes prior to micturition reflex (maximum intravesical pressure); a contraction showing a drop of 1 cmH2O or more after a rise of 2 cmH2O or more was evaluated as one time] after the stabilization of micturition reflex by continuous infusion of physiological saline for 2 hours or more was taken as a pre-administration value. Vehicle or each drug was intravenously administered after intravesical pressure was lowered to a baseline, and the premicturition contraction frequency in the first micturition reflex was taken as a post-administration value, and evaluated by a ratio (%) relative to the pre-administration value. Drugs for the four groups examined are as follows. Evaluation was carried out using 5 animals for each group.

Structure (SMILES) | inhibition of the premicturition contraction frequency (single use, ground for dose setting) | ratio of the premicturition contraction frequency relative to the pre-administration value [%] | significant inhibition of the premicturition contraction (frequency)
CCOc1ccccc1OCCN[C@H](C)Cc1ccc(OC)c(S(N)(=O)=O)c1 [drug B, (R)-5-(2-{[2-(2-ethoxyphenoxy)ethyl]amino}propyl)-2-methoxybenzene-1-sulfonamide hydrochloride] | about 15% | 84.8 | not recognized
Nc1nc(CC(=O)Nc2ccc(CCNC[C@H](O)c3ccccc3)cc2)cs1 [drug A, (R)-2-(2-aminothiazol-4-yl)-4′-{2-[(2-hydroxy-2-phenylethyl)amino]ethyl}acetanilide] | about 15% | 85.0 | not recognized
